# Earlier results in US20110034478A1, “Oral Pharmaceutical Compositions in a Solid Dispersion Comprising Preferably Posaconazole and HPMCAs” (Schering-Plough Corporation, priority 2008, published 2011).
# Key:
# [1] = not given; remark: listed apart in the source
SMILES,pKa,solubility in water [1]
CC(C(=O)Nc1cc(-c2ccccc2)nn1-c1ccccc1)N(C)C (stereo not shown) [Difenamizole],,practically insoluble
OC(Cn1cncn1)(Cn1cncn1)c1ccc(F)cc1F [Fluconazole],,about 1 ug/ml
N#Cc1ccc(C(c2ccc(C#N)cc2)n2cncn2)cc1 [Letrozole],,practically insoluble
CCC(C)n1ncn(-c2ccc(N3CCN(c4ccc(OCC5CO[C@](Cn6cncn6)(c6ccc(F)cc6F)O5)cc4)CC3)cc2)c1=O (stereo partly shown) [Saperconazole],,poorly soluble

# Other lines, results leading:
pKa,solubility in water [1],SMILES
3.7,practically insoluble,CCC(C)n1ncn(-c2ccc(N3CCN(c4ccc(OC[C@H]5CO[C@](Cn6cncn6)(c6ccc(Cl)cc6Cl)O5)cc4)CC3)cc2)c1=O (mixture of isomers) [Itraconazole]
,< 100 µg/mL,CC(C)N1CCN(c2ccc(OC[C@H]3CO[C@](Cn4cncn4)(c4ccc(Cl)cc4Cl)O3)cc2)CC1 (racemic) [Terconazole]
